According to patent US20190381084A1, “COMBINATION THERAPY” (NUCANA BIOMED LIMITED, priority 2015, published 2019):
Where two headings read alike, the source gives them in different places.

Assays:
HT1376 = assay: Single agent cytotoxicity assay (CellTiter-Glo); format: cell-based; details: 72 h; for IC50: Homo sapiens, HT-1376, CTG assay
Procedure: (§1) A2780, SK-OV-3, OVCAR-3, NCI-H460, NCI-H1975, NCI-H2122, 5637 and HT1376 were cultured in RPMI Medium 1640 (Invitrogen-22400105) supplemented with 10% fetal bovine serum (FBS; Invitrogen-10099141). All the cell lines were maintained in a humidified incubator at 37° C. with 5% CO2. Cell culture media and supplements were purchased from Invitrogen, and tissue culture flasks were purchased from Corning, 96-well plates and 384-well plates were purchased from Greiner. CellTiter-Glo Luminescent Cell Viability Assay kits were purchased from Promega (Promega-G7573), cells counter Vi-Cell was purchased from Beckman, detection instrument Envision was purchased from PerkinElmer.
(§2) Paclitaxcel (used as a reference) and cisplatin were purchased from SELLECK, and they were of highest purity available. All compounds attained solubility in DMSO and when diluted into culture media. DMSO, compounds solutions and culture media were warmed to 37° C. for the solution preparation and dilutions.
(§3) Eight cell lines were allowed to adhere to 96-well plates overnight (100 μL/well), for drug treatments with 3.16 fold dilution, 9 dose points, triplicates or vehicle control, compound stock solutions were prepared in DMSO and added to the wells to give the indicated final drug concentrations. Final DMSO concentration was 0.5%. Cellular ATP concentrations were assessed by using the CellTiter-Glo Cell Viability Assay as per the manufacturer's instructions 72 h after drug addition.
(§4) Stage 1: Single Agent IC50 Determination
(§5) In Stage 1 the IC50 (using 5 or more concentrations) of each individual compound cisplatin, carboplatin, gemcitabine and NUC-1031) in the relevant cell lines was determined.

OVCAR-3 = assay: Single agent cytotoxicity assay (CellTiter-Glo); format: cell-based; details: CTG assay, 72 h; for IC50: Homo sapiens
Procedure: as §1, §2, §3, §4, §5

SK-OV-3 = assay: Single agent cytotoxicity assay (CellTiter-Glo); format: cell-based; details: 72 h; for IC50: Homo sapiens, SK-OV-3, SK-OV3, CTG assay
Procedure: as §1, §2, §3, §4, §5

NCI-H460 = assay: Single agent cytotoxicity assay (CellTiter-Glo); format: cell-based; details: CTG assay, 72 h; for IC50: Homo sapiens
Procedure: as §1, §2, §3, §4, §5

NCI-H1975 = assay: Single agent cytotoxicity assay (CellTiter-Glo); format: cell-based; details: CTG assay, 72 h; for IC50: Homo sapiens
Procedure: as §1, §2, §3, §4, §5

5637 = assay: Single agent cytotoxicity assay (CellTiter-Glo); format: cell-based; details: CTG assay, 72 h
Procedure: as §1, §2, §3, §4, §5

A2780 = assay: Single agent cytotoxicity assay (CellTiter-Glo); format: cell-based; details: CTG assay, 72 h; for IC50: Homo sapiens
Procedure: as §1, §2, §3, §4, §5

[1] = ProGem1 phase I study in subjects with advanced solid malignancies; format: in vivo, human
From the text: ProGem1 was a first-time-in-human (FTIH), phase I, open label, two stage study to investigate the safety, tolerability, clinical efficacy, pharmacokinetics (PK) and pharmacodynamics (PD) of NUC-1031 given in two parallel dosing schedules in subjects with advanced solid malignancies (EudraCT Number: 2011-005232-26). Subjects had the following tumour types at study entry: colorectal cancer (7 subjects), unknown primary (3), ovarian cancer (12), breast cancer (4), pancreatic cancer (9), cholangiocarcinoma (7), endometrial cancer (3), cervical cancer (2), lung cancer (7), mesothelioma (3), oesophageal cancer (3), cancer of the fallopian tube (1), trophoblast (1), renal cancer (1), gastric cancer (1), anal cancer (1), cancer of the thymus (1) and osteosarcoma (1).

C[C@H](NP(=O)(OC[C@H]1O[C@@H](n2ccc(N)nc2=O)C(F)(F)[C@@H]1O)Oc1ccccc1)C(=O)OCc1ccccc1 (stereo partly drawn) [NUC-1031, 2′-Deoxy-2′,2′-difluoro-D-cytidine-5′-O-[phenyl (benzoxy-L-alaninyl)] phosphate]
Max Inhibition_% (HT1376; CTG assay): −2.54%
IC50 (HT1376; read-out: Ab IC50): > 1.98 µM
IC50 (HT1376; read-out: relative IC50): > 1.98 µM
Max Inhibition_% (OVCAR-3): 11.76%
IC50 (OVCAR-3; read-out: Ab IC50): > 1.98 µM
IC50 (OVCAR-3; read-out: relative IC50): 0.2 µM
IC50 (SK-OV-3; read-out: Ab IC50): 0.07 µM
IC50 (SK-OV-3; read-out: relative IC50): 0.06 µM
Max Inhibition_% (SK-OV-3; SK-OV3, CTG assay): 61.59%
Max Inhibition_% (NCI-H460): 91.98%
IC50 (NCI-H460; read-out: Ab IC50): 0.04 µM
IC50 (NCI-H460; read-out: relative IC50): 0.04 µM
Max Inhibition_% (NCI-H1975): 37.91%
IC50 (NCI-H1975; read-out: Ab IC50): > 1.98 µM
IC50 (NCI-H1975; read-out: relative IC50): 0.37 µM
Max Inhibition_% 5637: 77.88%
IC50 (5637; read-out: Ab IC50): 0.2 µM
IC50 (5637; read-out: relative IC50): 0.12 µM
Max Inhibition_% (A2780): 79.15%
IC50 (A2780; read-out: Ab IC50): 0.025 µM
IC50 (A2780; read-out: relative IC50): 0.016 µM
anti-tumour activity ([1]; patients with advanced progressive cancers who exhausted standard options): anti-tumour activity
levels of toxic metabolite dFdU released relative to gemcitabine ([1]; relative to levels normally associated with gemcitabine): less than half
